According to patent US20180022750A1, “6-HYDROXYBENZOFURANYL- AND 6-ALKOXYBENZOFURANYL-SUBSTITUTED IMIDAZOPYRIDAZINES” (BAYER PHARMA AKTIENGESELLSCHAFT, priority 2014, published 2018):

Key:
[1] = molecular target: T1, human full-length MKNK1 (Homo sapiens, UniProt Q9BUB5); assay: MKNK1 kinase assay (TR-FRET, 10 μM ATP); type: biochemical; settings: ATP 10 μM, 15 min preincubation, GST-MKNK1 (T344D)
T1 construct: GST (Glutathione-S-Transferase) (N); purchased Carna Biosciences 02-145; host or cells: insect cells (baculovirus expression system)
T1 sequence (Q9BUB5 1-424 isoform Q9BUB5-2 T344D): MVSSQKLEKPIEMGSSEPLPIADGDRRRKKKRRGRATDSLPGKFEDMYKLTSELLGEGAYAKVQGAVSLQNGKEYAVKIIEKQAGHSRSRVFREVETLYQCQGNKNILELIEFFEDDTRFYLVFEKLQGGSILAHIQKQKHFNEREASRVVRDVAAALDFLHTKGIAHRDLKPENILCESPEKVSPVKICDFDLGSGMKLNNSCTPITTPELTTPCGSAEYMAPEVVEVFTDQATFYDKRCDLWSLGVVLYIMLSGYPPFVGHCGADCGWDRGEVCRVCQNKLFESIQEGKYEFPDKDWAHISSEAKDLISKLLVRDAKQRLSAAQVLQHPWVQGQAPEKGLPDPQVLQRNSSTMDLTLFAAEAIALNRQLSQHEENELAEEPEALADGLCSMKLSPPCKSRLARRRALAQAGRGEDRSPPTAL
Description: MKNK1-inhibitory activity of compounds of the present invention was quantified employing the MKNK1 TR-FRET assay as described in the following paragraphs.
(§1) A recombinant fusion protein of Glutathione-S-Transferase (GST, N-terminally) and human full-length MKNK1 (amino acids 1-424 and T344D of accession number BAA 19885.1), expressed in insect cells using baculovirus expression system and purified via glutathione sepharose affinity chromatography, was purchased from Carna Biosciences (product no 02-145) and used as enzyme. As substrate for the kinase reaction the biotinylated peptide biotin-Ahx-IKKRKLTRRKSLKG (C-terminus in amide form) was used which can be purchased e.g. form the company Biosyntan (Berlin-Buch, Germany).
(§2) For the assay 50 nL of a 100fold concentrated solution of the test compound in DMSO was pipetted into a black low volume 384well microtiter plate (Greiner Bio-One, Frickenhausen, Germany), 2 μL of a solution of MKNK1 in aqueous assay buffer [50 mM HEPES pH 7.5, 5 mM magnesium chloride, 1.0 mM dithiothreitol, 0.005% (v/v) Nonidet-P40 (Sigma)] was added and the mixture was incubated for 15 min at 22° C. to allow pre-binding of the test compounds to the enzyme before the start of the kinase reaction. Then the kinase reaction was started by the addition of 3 μL of a solution of adenosine-tri-phosphate (ATP, 16.7 μM=>final conc. in the 5 μL assay volume is 10 μM) and substrate (0.1 μM=>final conc. in the 5 μL assay volume is 0.06 μM) in assay buffer and the resulting mixture was incubated for a reaction time of 45 min at 22° C. The concentration of MKNK1 was adjusted depending of the activity of the enzyme lot and was chosen appropriate to have the assay in the linear range, typical concentrations were in the range of 0.05 μg/ml. The reaction was stopped by the addition of 5 μL of a solution of TR-FRET detection reagents (5 nM streptavidine-XL665 [Cisbio Bioassays, Codolet, France] and 1 nM anti-ribosomal protein S6 (pSer236)-antibody from Invitrogen [#44921G] and 1 nM LANCE EU-W1024 labeled ProteinG [Perkin-Elmer, product no. AD0071]) in an aqueous EDTA-solution (100 mM EDTA, 0.1% (w/v) bovine serum albumin in 50 mM HEPES pH 7.5).
(§3) The resulting mixture was incubated for 1 h at 22° C. to allow the formation of complex between the phosphorylated biotinylated peptide and the detection reagents. Subsequently the amount of phosphorylated substrate was evaluated by measurement of the resonance energy transfer from the Eu-chelate to the streptavidine-XL. Therefore, the fluorescence emissions at 620 nm and 665 nm after excitation at 350 nm were measured in a TR-FRET reader, e.g. a Rubystar (BMG Labtechnologies, Offenburg, Germany) or a Viewlux (Perkin-Elmer). The ratio of the emissions at 665 nm and at […] was taken as the measure for the amount of phosphorylated substrate. The data were normalised (enzyme reaction without inhibitor=0% inhibition, all other assay components but no enzyme=100% inhibition).

[2] = molecular target: T2, human full-length MKNK1 (Homo sapiens, UniProt Q9BUB5, T385D); assay: MKNK1 kinase high ATP assay (TR-FRET, 2 mM ATP); type: biochemical; settings: ATP 2 mM, 15 min preincubation, GST-MKNK1 (T344D)
T2 construct: GST (Glutathione-S-Transferase) (N); purchased Carna Biosciences 02-145; host or cells: insect cells (baculovirus expression system)
T2 sequence (Q9BUB5 1-424 isoform Q9BUB5-2 T344D): as above
Procedure: MKNK1-inhibitory activity at high ATP of compounds of the present invention after their preincubation with MKNK1 was quantified employing the TR-FRET-based MKNK1 high ATP assay as described in the following paragraphs.
as §1, with “was used,” for “was used”, “e.g. from” for “e.g. form”
as §2, with “3.3 mM=>final” for “16.7 μM=>final”, “2 mM)” for “10 μM)”, “30” for “45”, “0.003 μg/mL.” for “0.05 μg/ml.”
as §3

SMILES	IC50 [1] [µM]	IC50 [2] [µM]
COc1ccc2cc(-c3cnc4ccc(OCCCN)nn34)oc2c1 [Example 6, 3-{[3-(6-methoxy-1-benzofuran-2-yl)imidazo[1,2-b]pyridazin-6-yl]oxy}propan-1-amine]	0.343	0.913
CC(=O)NC[C@@H](C)Oc1ccc2ncc(-c3cc4ccc(O)cc4o3)n2n1 [Example 5, N-[(2R)-2-{[3-(6-hydroxy-1-benzofuran-2-yl)imidazo[1,2-b]pyridazin-6-yl]oxy}-propyl]acetamide]	0.0402	0.0377
COc1ccc2cc(-c3cnc4ccc(OCCCCN)nn34)oc2c1 [Example 8, 4-{[3-(6-methoxy-1-benzofuran-2-yl)imidazo[1,2-b]pyridazin-6-yl]oxy}butan-1-amine]	0.217	0.798
COc1ccc2cc(-c3cnc4ccc(OCCN)nn34)oc2c1 [Example 3, 2-{[3-(6-methoxy-1-benzofuran-2-yl)imidazo[1,2-b]pyridazin-6-yl]oxy}ethanamine]	0.977	2.55
COc1ccc2cc(-c3cnc4ccc(OCCCCN(C)C)nn34)oc2c1 [Example 9, 4-{[3-(6-methoxy-1-benzofuran-2-yl)imidazo[1,2-b]pyridazin-6-yl]oxy}-N,N-dimethylbutan-1-amine]	0.434	1.01
COc1ccc2cc(-c3cnc4ccc(OCCN5CCNC5=O)nn34)oc2c1 [Example 12, 1-(2-{[3-(6-methoxy-1-benzofuran-2-yl)imidazo[1,2-b]pyridazin-6-yl]oxy}ethyl)-imidazolidin-2-one]	0.41	2.39
COc1ccc2cc(-c3cnc4ccc(O[C@H](C)CN)nn34)oc2c1 [Example 15, (2R)-2-{[3-(6-methoxy-1-benzofuran-2-yl)imidazo[1,2-b]pyridazin-6-yl]oxy}-propan-1-amine]	1.32	2.82
CCN(CC)CCCC(C)Oc1ccc2ncc(-c3cc4ccc(OC)cc4o3)n2n1 (stereo not drawn) [Example 10, N,N-diethyl-4-{[3-(6-methoxy-1-benzofuran-2-yl)imidazo[1,2-b]pyridazin-6-yl]-oxy}pentan-1-amine]	0.127	0.352
C[C@H](CN)Oc1ccc2ncc(-c3cc4ccc(O)cc4o3)n2n1 [Example 4, 2-(6-{[(2R)-1-aminopropan-2-yl]oxy}imidazo[1,2-b]pyridazin-3-yl)-1-benzofuran-6-ol]	0.0491	0.0421
COc1ccc2cc(-c3cnc4ccc(O[C@H](C)CNC(C)=O)nn34)oc2c1 [Example 14, N-[(2R)-2-{[3-(6-methoxy-1-benzofuran-2-yl)imidazo[1,2-b]pyridazin-6-yl]oxy}-propyl]acetamide]	0.997	3.81
COc1ccc2cc(-c3cnc4ccc(OCCCO)nn34)oc2c1 [Example 1, 3-{[3-(6-methoxy-1-benzofuran-2-yl)imidazo[1,2-b]pyridazin-6-yl]oxy}propan-1-ol]	0.714	2.57
COCCCOc1ccc2ncc(-c3cc4ccc(OC)cc4o3)n2n1 [Example 2, 3-(6-methoxy-1-benzofuran-2-yl)-6-(3-methoxypropoxy)imidazo[1,2-b]-pyridazine]	0.864	5.52
COc1ccc2cc(-c3cnc4ccc(OCC(C)(C)CN(C)C)nn34)oc2c1 [Example 7, 3-{[3-(6-methoxy-1-benzofuran-2-yl)imidazo[1,2-b]pyridazin-6-yl]oxy}-N,N,2,2-tetramethylpropan-1-amine]	5.44	14.8
COc1ccc2cc(-c3cnc4ccc(OCCC5CCCN5C)nn34)oc2c1 (stereo not drawn) [Example 11, 3-(6-methoxy-1-benzofuran-2-yl)-6-[2-(1-methylpyrrolidin-2-yl)ethoxy]imidazo-[1,2-b]pyridazine]	0.664	1.15
COc1ccc2cc(-c3cnc4ccc(OCCCN5CCOCC5)nn34)oc2c1 [Example 13, 3-(6-methoxy-1-benzofuran-2-yl)-6-[3-(morpholin-4-yl)propoxy]imidazo[1,2-b]-pyridazine]	0.567	2.13
